This passage reports IC50 results from patent US5087631A, “Oxathi(SIV)azol-5-one compounds” (Glaxo Inc., priority 1990, dated 1992).

Each structure is given as a SMILES string.

For orientation: IC50 means the midpoint of a concentration-inhibition curve.

The assay deals with thoracic aortas. Nature of the assay: Aorta Vasodilation Assay (relaxation of phenylephrine-contracted, endothelium-removed rat thoracic aorta rings). The conditions noted are these: 20% O2, without methylene blue, endothelium-removed rings contracted with phenylephrine (1×10^-7 M), SOD 100 U/mL, cumulative addition, read-out: IC50 (relaxation induced by test compound, vasodilation assay). Also on record: species or system male Sprague-Dawley rats. Here is the method:
The thoracic aortas removed from euthanized male Sprague-Dawley rats (200-300 g) are cleaned of adherent connective tissue and cut into rings 3 to 5 mm in length. Endothelium is removed by rolling the rings on moist filter paper. […] Tissues are mounted to isometric force displacement transducers and responses are recorded on a polygraph.
All rings are gradually stretched (over a 120 min. period) to a basal resting tension of 2 g, which is maintained throughout the assay. During the basal tension adjustment period, the rings are exposed to KCl (40 mM) two to three times to verify tissue contractility. During this period, the effectiveness of endothelium removal is confirmed by the absence of the characteristic relaxation seen with acetylcholine (1×10^-6 M) in endothelium-intact (but not endothelium-removed) rings contracted with phenylephrine (1×10^-7 M).
Phenylephrine (1×10^-7 M) is then added and the rings are allowed to obtain a stable contractile response after which time, SOD (100 U/mL) is added to the tissues. The test compound is then added in a cumulative fashion. After the stabilization of the response to the last concentration of the test compound, sodium nitroprusside (1×10^-4 M) is added to induce complete relaxation.
For `COc1ccc(-c2[s+]noc2[O-])cc1` [4-methoxyphenyl, 4-(4-methoxyphenyl)-5H-1,3,2-oxathi(SIV)azol-5-one], the IC50 was 1.3 µM.
Consider `O=[N+]([O-])c1ccc(-c2[s+]noc2[O-])cc1` [4-nitrophenyl, 4-(4-nitrophenyl)-5H-1,3,2-oxathi(SIV)azol-5-one], for which the IC50 was determined as 16 µM.
Turning to `Cc1[s+]noc1[O-]` [methyl, 4-Methyl-5H-1,3,2-oxathi(SIV)azol-5-one], the IC50 came out at 20 µM.
As for `[O-]c1on[s+]c1-c1ccccc1` [phenyl, 4-phenyl-5H-1,3,2-oxathi(SIV)azol-5-one], the figure is 2.3 µM.
